Key:
MOLM-16 = MOLM-16 EC50 assay; assay type: cell-based; settings: MOLM16
PIP4K2A = molecular target: T1, PIP4K2A (Homo sapiens, UniProt P48426); experiment: Kinase Assay-PIP4K2 A (ADP-Glo); assay type: biochemical
T1 construct: made in house; host or cells: E. coli
T1 sequence (P48426 1-406): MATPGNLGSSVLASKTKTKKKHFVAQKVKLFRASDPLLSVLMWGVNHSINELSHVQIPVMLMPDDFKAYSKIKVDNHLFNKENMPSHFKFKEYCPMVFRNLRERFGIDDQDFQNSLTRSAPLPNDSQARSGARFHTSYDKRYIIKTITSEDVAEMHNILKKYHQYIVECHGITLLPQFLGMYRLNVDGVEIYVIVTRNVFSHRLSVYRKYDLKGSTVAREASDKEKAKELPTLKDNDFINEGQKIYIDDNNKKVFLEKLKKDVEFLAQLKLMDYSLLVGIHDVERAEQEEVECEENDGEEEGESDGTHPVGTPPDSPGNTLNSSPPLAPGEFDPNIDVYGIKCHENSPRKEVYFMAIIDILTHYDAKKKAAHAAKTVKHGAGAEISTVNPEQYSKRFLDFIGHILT
Method: Dilution series of the compounds were prepared in DMSO at 100 times the final assay concentration (n1=n0/3 in 10 points). The compounds were further diluted to three times the assay concentration in assay buffer (20 mM MOPS pH 7.2, 25 mM magnesium chloride, 0.005% Tween 20). 6 μL of the diluted compounds were added to a 384 well assay plate followed by 9 μL of a mix consisting of 4 nM PIP4K2A (full length protein, SignalChem) and 100 μM PI(5)P diC8 (Tebu-Bio). Enzyme and compounds were pre-incubated at room temperature for 15 minutes.
Then 3 μL of a solution containing 60 μM ATP (Promega) in assay buffer was added to the wells containing compound and enzyme and mixing was performed by pipetting several times. The reaction was incubated at room temperature for 1 h. Then 18 μL of ADP-Glo™ Reagent (Promega) was added to stop the kinase reaction and deplete the unconsumed ATP, mixing was performed by pipetting several times. The plate was incubated at room temperature for 40 minutes before addition of 36 μL of Kinase Detection Reagent (Promega) to convert ADP to ATP and introduce luciferase and luciferin to detect ATP. The reaction was incubated at room temperature for 40 minutes before the luminescence was measured in a in a Victor 3V 1420 multilabel counter (Perkin Elmer).
Percent inhibition of the compounds as compared to dimethyl sulfoxide treated control samples was calculated. Compound concentration versus percent inhibition were fitted to generate IC50 values. […]

PIP4K2 B = molecular target: T2, PIP4K2 B (Homo sapiens, UniProt P78356); experiment: Kinase Assay-PIP4K2 B (Transcreener FI); assay type: biochemical
T2 construct: made in house; host or cells: E. coli
T2 sequence (P78356 1-416): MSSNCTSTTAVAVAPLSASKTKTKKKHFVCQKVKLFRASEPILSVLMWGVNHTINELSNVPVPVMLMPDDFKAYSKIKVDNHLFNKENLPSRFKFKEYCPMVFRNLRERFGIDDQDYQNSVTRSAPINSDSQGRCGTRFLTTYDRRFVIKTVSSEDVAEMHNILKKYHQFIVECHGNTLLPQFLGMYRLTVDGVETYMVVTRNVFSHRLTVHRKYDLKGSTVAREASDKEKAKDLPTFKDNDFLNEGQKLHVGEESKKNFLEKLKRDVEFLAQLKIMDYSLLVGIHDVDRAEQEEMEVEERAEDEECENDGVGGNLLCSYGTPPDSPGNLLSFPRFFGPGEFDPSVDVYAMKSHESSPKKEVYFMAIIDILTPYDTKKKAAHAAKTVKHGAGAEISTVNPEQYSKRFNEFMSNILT
Source text: GST tagged PIP4KtypeIIA and B enzymes were overexpressed in E. Coli and purified to >80% homogeneity. Phosphatidyl inositol-5-phosphate (PI5P, Cat. #850152, Avanti Polar Lipids Inc.) was used as the lipid substrate and phosphatidyl ethanolamine (DOPE 18:1, Cat. #850725, Avanti Polar Lipids Inc.) was used as the carrier lipid for assays. Ultrapure ATP and GTP was purchased from Bellbrooke Labs. ADP Glo reagents were obtained from Promega. Transcreener FI reagent was obtained from Bellbrooke labs.
• 1. HEPES buffer mix: 200 mM HEPES pH 7.4, 50 mM MgCl2, 0.05% v/v triton X 100 • 2. HNE buffer: 20 mM HEPES, pH 7.4, 100 mM NaCl, 0.5 mM EGTA • 3. H:E buffer: 30 mM HEPES, pH 7.4, 1 mM EGTA
GST-tagged PIP4KtypeIIB (3.4 μl, 2.77 mg/mL) was diluted to 5 mL using HNE buffer to yield 5× enzyme stock (25 nM)
Lipid Preparation: In a 10 mL pyrex glass vial, […] were suspended in 2.5 mL of HEPES buffer mix and 2.5 mL of H:E buffer. The contents were mixed and sonicated for 3 min to yield a translucent lipid stock.
Compound Preparation: Compounds were stored as 5 mM stocks in neat DMSO as room temperature in glass vials. 5 mM stocks were diluted to 2 mM and then serially diluted (3×) in neat DMSO in 96 well polypropylene plates. From the serially diluted stocks, 3 μL was delivered into 250 μL of 25% DMSO (in water) to generate 5× compound stocks. Typically, the highest compound conc. was 24 μM.
The assay volume was kept at 25 μL. To each well of the reaction plate, 10 μL of lipid stock (1:1 ratio PI5P:DOPE) was delivered. This was followed by the addition of 5 μL of compound in 25% DMSO. Then, to each well, 5 μL of 25 nM (5×) typeIIB enzyme was delivered. The contents were mixed well and incubated for 1 h at 27° C. After 1 h, reaction was initiated by adding 5 μL of 500 μM GTP and the contents were mixed well with a multi-channel pipetteman. The final concentration of the reagents are as follows: 50 mM HEPES, pH 7.3, 10 mM MgCl2, 20 mM NaCl, 0.01% v/v triton-X100, 5% DMSO, 100 μM GTP, 80 μM (2 μg) PI5P, 2 μg DOPE, and 5 nM PIP4KIIB Typically, the highest conc. of compounds was 4.8 μM and the lowest conc. was 0.
After 2 h, the reaction was quenched by adding 25 μL of transcreener FI reagent. The contents were incubated at rt for 1 h and the Fluorescence (Ex: 584 Em: 623) was read using Molecular Devices Paradigm plate reader. […] The blanks were averaged and subtracted from all other wells. Using a calibration curve, RFU was converted to μM GDP (product). IC50 was calculated by plotting the residual activity (expressed as % No inhibitor control) vs. log [Inh. conc.].

EC50 (MOLM-16) | IC50 (PIP4K2A) | IC50 (PIP4K2 B) | Structure (SMILES)
> 1000 nM | 1 to 10 nM | 1 to 10 nM | C=C(C)c1cc(Nc2cnc3c(c2)N2C(=O)CC[C@H]2CO3)ncc1-c1ccc(-c2nncn2C)cc1 [Compound 8, (6S)-12-({5-[4-(4-methyl-4H-1,2,4-triazol-3-yl)phenyl]-4-(prop-1-en-2-yl)pyridin-2-yl}amino)-8-oxa-2,10-diazatricyclo[7.4.0.0^2,6]trideca-1(13),9,11-trien-3-one]
100 to 1000 nM | 1 to 10 nM | 1 to 10 nM | CC1(C#N)CN(c2nc(Nc3cnc4c(c3)N3C(=O)CC[C@H]3CO4)ncc2-c2ccc(N3CCCC3=O)cc2)C1 [Compound 10, 3-methyl-1-(2-{[(6S)-3-oxo-8-oxa-2,10-diazatricyclo[7.4.0.0^2,6]trideca-1(13),9,11-trien-12-yl]amino}-5-[4-(2-oxopyrrolidin-1-yl)phenyl]pyrimidin-4-yl)azetidine-3-carbonitrile]
100 to 1000 nM | 1 to 10 nM | 1 to 10 nM | CN(c1nc(Nc2cnc3c(c2)OCCO3)ncc1-c1ccc(N2CCCC2=O)cc1)[C@H]1C[C@H](O)C1 [Compound 12, 1-{4-[2-({2H,3H-[1,4]dioxino[2,3-b]pyridin-7-yl}amino)-4-{methyl[(1r,3r)-3-hydroxycyclobutyl]amino}pyrimidin-5-yl]phenyl}pyrrolidin-2-one]
100 to 1000 nM | 1 to 10 nM | 1 to 10 nM | Cc1cnnn1-c1ccc(-c2cnc(Nc3cnc4c(c3)N(C(=O)OCCN(C)C)CCO4)nc2)cc1 [Compound 13, 2-(dimethylamino)ethyl 7-({5-[4-(5-methyl-1H-1,2,3-triazol-1-yl)phenyl]pyrimidin-2-yl}amino)-1H,2H,3H-pyrido[2,3-b][1,4]oxazine-1-carboxylate]
> 1000 nM | 1 to 10 nM | 1 to 10 nM | O=C1CCCN1c1ccc(-c2cnc(Nc3cnc4c(c3)N3C(=O)CC[C@H]3CO4)nc2C(F)(F)F)cc1 [Compound 14, (6S)-12-({5-[4-(2-oxopyrrolidin-1-yl)phenyl]-4-(trifluoromethyl)pyrimidin-2-yl}amino)-8-oxa-2,10-diazatricyclo[7.4.0.0^2,6]trideca-1(9),10,12-trien-3-one]
100 to 1000 nM | 1 to 10 nM | 1 to 10 nM | COc1nc(Nc2cnc3c(c2)N(C(=O)OCCN(C)C)CCO3)ncc1-c1ccc(C(=O)N(C)C)cc1 [Compound 15, 2-(dimethylamino)ethyl 7-({5-[4-(dimethylcarbamoyl)phenyl]-4-methoxypyrimidin-2-yl}amino)-1H,2H,3H-pyrido[2,3-b][1,4]oxazine-1-carboxylate]
10 to 100 nM | 10 to 100 nM | 10 to 100 nM | COc1nc(Nc2cncc(N3CCC(N(C)C)CC3)c2)ncc1-c1ccc(N2CCCC2=O)cc1 [Compound 16, 1-{4-[2-({5-[4-(dimethylamino)piperidin-1-yl]pyridin-3-yl}amino)-4-methoxypyrimidin-5-yl]phenyl}pyrrolidin-2-one]
> 1000 nM | 10 to 100 nM | 100 to 1000 nM | CN(C)C(=O)c1ccc(-c2cnc(Nc3cnc4c(c3)OCCO4)nc2N(C)[C@H]2C[C@@H](O)C2)cc1 [Compound 18, 4-[2-({2H,3H-[1,4]dioxino[2,3-b]pyridin-7-yl}amino)-4-{methyl[(1s,3s)-3-hydroxycyclobutyl]amino}pyrimidin-5-yl]-N,N-dimethylbenzamide]
10 to 100 nM | 10 to 100 nM | 10 to 100 nM | COc1nc(Nc2cnc3c(c2)N(C(=O)CN(C)C)CCO3)ncc1-c1ccc(N2CCCC2=O)cc1 [Compound 19, 1-{4-[2-({1-[2-(dimethylamino)acetyl]-1H,2H,3H-pyrido[2,3-b][1,4]oxazin-7-yl}amino)-4-methoxypyrimidin-5-yl]phenyl}pyrrolidin-2-one]
100 to 1000 nM | 10 to 100 nM | 10 to 100 nM | Cc1cnnn1-c1ccc(-c2cnc(Nc3cnc4c(c3)N(C(=O)CN(C)C)CCO4)nc2)cc1 [Compound 20, 2-(dimethylamino)-1-[7-({5-[4-(5-methyl-1H-1,2,3-triazol-1-yl)phenyl]pyrimidin-2-yl}amino)-1H,2H,3H-pyrido[2,3-b][1,4]oxazin-1-yl]ethan-1-one]
> 1000 nM | 10 to 100 nM | 10 to 100 nM | O=C1CCCN1c1ccc(-c2cnc(Nc3cnc4c(c3)N3C(=O)CC[C@H]3CO4)nc2CC2(O)COC2)cc1F [Compound 21, (6S)-12-({5-[3-fluoro-4-(2-oxopyrrolidin-1-yl)phenyl]-4-[(3-hydroxyoxetan-3-yl)methyl]pyrimidin-2-yl}amino)-8-oxa-2,10-diazatricyclo[7.4.0.0^2,6]trideca-1(9),10,12-trien-3-one]
100 to 1000 nM | 100 to 1000 nM | 100 to 1000 nM | CCN(CC)CCN1CCOc2ncc(Nc3ncc(-c4ccc(N5CCCC5=O)cc4)c(OC)n3)cc21 [Compound 26, 1-{4-[2-({1-[2-(diethylamino)ethyl]-1H,2H,3H-pyrido[2,3-b][1,4]oxazin-7-yl}amino)-4-methoxypyrimidin-5-yl]phenyl}pyrrolidin-2-one]
10 to 100 nM | 10 to 100 nM | 10 to 100 nM | COc1nc(Nc2cncc(N3CC[C@@H](N(C)C)C3)c2)ncc1-c1ccc(-c2nnccc2C)cc1 [Compound 34, N-{5-[(3R)-3-(dimethylamino)pyrrolidin-1-yl]pyridin-3-yl}-4-methoxy-5-[4-(4-methylpyridazin-3-yl)phenyl]pyrimidin-2-amine]
10 to 100 nM | 100 to 1000 nM | 100 to 1000 nM | COc1nc(Nc2cncc(N3CC[C@@H](N(C)C)C3)c2)ncc1-c1ccc(N2CCCC2=O)cc1 [Compound 35, 1-{4-[2-({5-[(3R)-3-(dimethylamino)pyrrolidin-1-yl]pyridin-3-yl}amino)-4-methoxypyrimidin-5-yl]phenyl}pyrrolidin-2-one]

Reference: patent US12006332B2, “Aminopyrimidine derivatives as phosphatidylinositol phosphate kinase inhibitors” (HiberCell, Inc., priority 2019, dated 2024)
